Results on ten compounds are retold here after US20040072206A1, “Method for identifying modulators of transcription” (priority 2000, published 2004).

The target of this experiment is T1, B. subtilis RNAP (Bacillus subtilis, UniProt P37870+P37871).
T1 construct: endogenous in cells; host or cells: Bacillus subtilis strain PL37 (built from strain 168)
As to the kind of experiment: Dual reporter assay in strain PL37: test reporter Pxyl-lacZ and ratio of control to test reporter (RES:MUG). It is filed as cell-based. The conditions noted are these: for Ratio of the control reporter (RES): test reporter (MUG): strain PL37, DMSO control […]. Here is the method: 20 known antibiotics were tested at a range of concentrations to determine their effect on test and control reporters within the assay. […] Cultures of PL37 grown in PAB, were diluted to 0.05 A600 and then grown for 2 hours at 37° C. in PAB supplemented with 0.02 mM IPTG. Cells were pelleted and frozen. They were later resuspended and diluted in PAB supplemented with 0.02 mM IPTG and grown at 37° C. to early exponential phase. Cultures were then diluted to 0.05 A600 in PAB and added in 20 μl volumes to wells of microtitre plates containing 20 μl volumes of the antibiotics. Plates were incubated at 37° C. for two hours, and assay mix was added to detect reporter enzyme activity (see below).
Following the addition of 160 μl of assay mix (1.3×Z buffer containing 94 μg/ml lysozyme, 8.4 μg/ml 4-methylumbelliferyl-β-D-galactoside, 0.53 μg/ml resorufin-β-D-glucuronide and 0.05% Triton) to each well, the microtitre plate was incubated in the dark for 30 mini or 1 hour at room temperature. Fluorescence was read on a BMG FLUOstar Galaxy at excitation/emission 355/460 nm and 544/590 nm, respectively, with gains set at 5 and 25, respectively.
(In general: In a reporter assay the amount or activity of a reporter protein is the signal.)

Setting [1] is: Dilution Number 1 (highest concentration tested: 128, 16 or 0.5 μg/ml depending on antibiotic).
The mark [2] stands for this setting: Dilution Number 11 (lowest concentration tested: 0.125, 0.016 or 0.0005 μg/ml depending on antibiotic).

T1 sequence (P37871 whole entry): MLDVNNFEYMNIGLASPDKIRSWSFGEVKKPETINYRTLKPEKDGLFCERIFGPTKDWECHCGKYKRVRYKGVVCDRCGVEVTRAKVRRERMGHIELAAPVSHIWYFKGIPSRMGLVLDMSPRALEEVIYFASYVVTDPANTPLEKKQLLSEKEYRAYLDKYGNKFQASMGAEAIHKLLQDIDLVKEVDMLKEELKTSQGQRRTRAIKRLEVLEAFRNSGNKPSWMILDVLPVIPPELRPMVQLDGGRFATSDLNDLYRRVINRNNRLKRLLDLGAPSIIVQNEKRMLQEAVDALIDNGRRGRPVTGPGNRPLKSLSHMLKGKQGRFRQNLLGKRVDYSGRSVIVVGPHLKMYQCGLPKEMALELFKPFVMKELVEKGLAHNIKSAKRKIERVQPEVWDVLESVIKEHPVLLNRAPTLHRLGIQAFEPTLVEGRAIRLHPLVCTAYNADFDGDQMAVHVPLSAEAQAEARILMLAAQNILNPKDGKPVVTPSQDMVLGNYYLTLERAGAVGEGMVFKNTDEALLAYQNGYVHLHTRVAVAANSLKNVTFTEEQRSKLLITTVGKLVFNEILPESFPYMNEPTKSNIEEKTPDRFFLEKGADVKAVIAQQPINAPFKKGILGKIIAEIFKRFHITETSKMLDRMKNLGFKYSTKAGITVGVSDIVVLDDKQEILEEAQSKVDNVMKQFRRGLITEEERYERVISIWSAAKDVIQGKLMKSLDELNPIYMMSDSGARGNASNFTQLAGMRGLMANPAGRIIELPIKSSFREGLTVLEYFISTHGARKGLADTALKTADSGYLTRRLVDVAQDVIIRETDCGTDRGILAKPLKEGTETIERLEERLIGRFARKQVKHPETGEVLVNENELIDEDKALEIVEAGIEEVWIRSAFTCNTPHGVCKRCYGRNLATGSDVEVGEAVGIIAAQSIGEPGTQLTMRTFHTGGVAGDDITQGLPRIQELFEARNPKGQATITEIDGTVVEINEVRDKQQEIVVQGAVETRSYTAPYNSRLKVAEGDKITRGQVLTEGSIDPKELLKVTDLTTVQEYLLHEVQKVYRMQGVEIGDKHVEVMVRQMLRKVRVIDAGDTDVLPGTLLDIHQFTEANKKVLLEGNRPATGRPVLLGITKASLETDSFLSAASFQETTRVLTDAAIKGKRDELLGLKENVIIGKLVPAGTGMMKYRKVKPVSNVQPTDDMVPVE
T1 sequence (P20429 whole entry, further chain): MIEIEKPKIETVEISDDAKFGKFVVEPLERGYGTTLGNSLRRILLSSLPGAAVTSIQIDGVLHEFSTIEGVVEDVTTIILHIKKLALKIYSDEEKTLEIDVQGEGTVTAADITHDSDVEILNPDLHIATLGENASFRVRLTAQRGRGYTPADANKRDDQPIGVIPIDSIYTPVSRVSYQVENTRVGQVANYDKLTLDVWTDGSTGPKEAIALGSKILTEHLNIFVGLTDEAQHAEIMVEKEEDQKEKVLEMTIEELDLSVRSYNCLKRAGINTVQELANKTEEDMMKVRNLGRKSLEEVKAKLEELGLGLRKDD
T1 sequence (O35011 whole entry, further chain): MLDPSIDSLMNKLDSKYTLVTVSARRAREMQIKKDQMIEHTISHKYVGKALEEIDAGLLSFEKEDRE
T1 sequence (P37870 whole entry): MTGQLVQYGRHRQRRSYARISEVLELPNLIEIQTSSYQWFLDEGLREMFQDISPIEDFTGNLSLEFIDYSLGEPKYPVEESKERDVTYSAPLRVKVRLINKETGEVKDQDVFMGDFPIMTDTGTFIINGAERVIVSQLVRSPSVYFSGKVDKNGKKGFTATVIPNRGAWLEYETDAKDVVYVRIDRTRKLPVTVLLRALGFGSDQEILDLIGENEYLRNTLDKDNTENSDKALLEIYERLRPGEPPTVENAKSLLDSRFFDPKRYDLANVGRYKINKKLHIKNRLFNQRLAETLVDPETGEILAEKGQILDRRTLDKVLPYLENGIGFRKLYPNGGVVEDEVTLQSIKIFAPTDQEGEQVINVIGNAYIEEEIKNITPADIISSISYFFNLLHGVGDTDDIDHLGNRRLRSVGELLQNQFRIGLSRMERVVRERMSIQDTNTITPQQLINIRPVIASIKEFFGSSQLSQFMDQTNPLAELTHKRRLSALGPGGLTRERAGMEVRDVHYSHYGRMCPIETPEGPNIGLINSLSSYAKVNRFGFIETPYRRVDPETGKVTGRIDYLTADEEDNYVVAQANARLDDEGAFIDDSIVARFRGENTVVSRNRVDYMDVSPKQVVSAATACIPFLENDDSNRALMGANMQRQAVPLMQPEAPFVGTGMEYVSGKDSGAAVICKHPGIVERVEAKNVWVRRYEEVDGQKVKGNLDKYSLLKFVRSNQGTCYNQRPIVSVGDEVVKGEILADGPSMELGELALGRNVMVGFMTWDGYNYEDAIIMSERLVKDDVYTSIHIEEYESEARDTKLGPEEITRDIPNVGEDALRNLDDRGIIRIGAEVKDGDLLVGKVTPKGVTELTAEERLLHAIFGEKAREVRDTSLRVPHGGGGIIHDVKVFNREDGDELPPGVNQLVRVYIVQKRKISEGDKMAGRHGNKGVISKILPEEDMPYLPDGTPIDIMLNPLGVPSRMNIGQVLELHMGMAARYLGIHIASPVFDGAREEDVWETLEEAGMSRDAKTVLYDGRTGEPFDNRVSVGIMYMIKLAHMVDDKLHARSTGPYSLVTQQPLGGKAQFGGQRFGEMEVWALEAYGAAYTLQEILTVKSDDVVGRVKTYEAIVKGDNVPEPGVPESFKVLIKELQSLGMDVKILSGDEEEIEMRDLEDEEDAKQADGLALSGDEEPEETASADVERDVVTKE

For `CCn1cc(C(=O)O)c(=O)c2ccc(C)nc21` [Nalidixic Acid], the “Ratio of the control reporter (RES): test reporter (MUG)” value (shortened to “Ratio of the control reporter (RES)”) is, setting by setting: under setting [1], 1.50; (Dilution Number 2) 1.76; (Dilution Number 3) 1.74; (Dilution Number 4) 0.87; (Dilution Number 5) 0.68; (Dilution Number 6) 0.91. Moreover, the “Ratio of the control reporter (RES)” value (Dilution Number 7) amounted to 1.18; the “Ratio of the control reporter (RES)” value (Dilution Number 8) amounted to 1.25; the “Ratio of the control reporter (RES)” value (Dilution Number 9) amounted to 1.26; the “Ratio of the control reporter (RES)” value (Dilution Number 10) came out at 1.26; the “Ratio of the control reporter (RES)” value under setting [2] is reported as 1.22.

Turning to `CC[C@H]1OC(=O)[C@H](C)[C@@H](O[C@H]2C[C@@](C)(OC)[C@@H](O)[C@H](C)O2)[C@H](C)[C@@H](O[C@@H]2O[C@H](C)C[C@H](N(C)C)[C@H]2O)[C@](C)(O)C[C@@H](C)C(=O)[C@H](C)[C@@H](O)[C@]1(C)O` [Erythromycin], the “Ratio of the control reporter (RES)” value was determined as 1.45 (Dilution Number 4); 1.58 (Dilution Number 5); 1.72 (Dilution Number 6); 1.73 (Dilution Number 7); 1.71 (Dilution Number 8); 1.56 (Dilution Number 9).

With `CO[C@@H]1[C@@H](OC(N)=O)[C@@H](O)[C@H](Oc2ccc3c(O)c(NC(=O)c4ccc(O)c(CC=C(C)C)c4)c(=O)oc3c2C)OC1(C)C` [Novobiocin], the “Ratio of the control reporter (RES)” value worked out at 1.33 under setting [1]; 1.70 (Dilution Number 2); 1.66 (Dilution Number 3); 1.49 (Dilution Number 4); 1.24 (Dilution Number 5); 0.81 (Dilution Number 6). For the same compound, the “Ratio of the control reporter (RES)” value (Dilution Number 7) turned out to be 0.85; the “Ratio of the control reporter (RES)” value (Dilution Number 8) is on record as 1.05; the “Ratio of the control reporter (RES)” value (Dilution Number 9) is given as 1.14; the “Ratio of the control reporter (RES)” value (Dilution Number 10) is given as 1.18; the “Ratio of the control reporter (RES)” value under setting [2] was found to be 1.19.

With `CC1(C)S[C@@H]2[C@H](NC(=O)Cc3ccccc3)C(=O)N2[C@H]1C(=O)O` [Penicillin G], the “Ratio of the control reporter (RES)” value came out at 1.77 under setting [1]; 1.72 (Dilution Number 2); 1.70 (Dilution Number 3); 1.76 (Dilution Number 4); 1.81 (Dilution Number 5); 1.80 (Dilution Number 6). Further, the “Ratio of the control reporter (RES)” value is 1.84 (Dilution Number 7); 1.64 (Dilution Number 8); 1.01 (Dilution Number 9); 1.01 (Dilution Number 10); 1.07 under setting [2].

As to `CC1=C(C(=O)O)N2C(=O)[C@@H](NC(=O)[C@H](N)c3ccccc3)[C@H]2SC1` [Cephalexin], the “Ratio of the control reporter (RES)” value by setting is: under setting [1], 1.73; (Dilution Number 2) 1.78; (Dilution Number 3) 1.76; (Dilution Number 4) 1.62; (Dilution Number 5) 1.68; (Dilution Number 6) 1.81.

With `CCn1cc(C(=O)O)c(=O)c2cc3c(cc21)OCO3` [Oxolinic Acid], the “Ratio of the control reporter (RES)” value came to 0.89 under setting [1]; 1.33 (Dilution Number 2); 1.63 (Dilution Number 3); 1.77 (Dilution Number 4); 2.02 (Dilution Number 5); 1.86 (Dilution Number 6). For the same compound, the “Ratio of the control reporter (RES)” value stood at 0.96 (Dilution Number 7); 1.06 (Dilution Number 8); 1.05 (Dilution Number 9); 1.14 (Dilution Number 10); 1.17 under setting [2].

With `CN[C@@H]1[C@H](O)[C@H](NC)[C@H]2O[C@@]3(O)C(=O)C[C@@H](C)O[C@H]3O[C@@H]2[C@H]1O` [Spectinomycin], the “Reporter expression (both reporter activities)” value (strain PL37, FIG. 5 and FIG. 6) is “remained unchanged”. The “Ratio of the control reporter (RES)” value by setting is: under setting [1], 1.30; (Dilution Number 2) 1.23; (Dilution Number 3) 1.21; (Dilution Number 4) 1.14; (Dilution Number 5) 1.16; (Dilution Number 6) 1.14. For the same compound, the “Ratio of the control reporter (RES)” value (Dilution Number 7) came to 1.08; the “Ratio of the control reporter (RES)” value (Dilution Number 8) is recorded as 1.10; the “Ratio of the control reporter (RES)” value (Dilution Number 9) was determined as 1.10; the “Ratio of the control reporter (RES)” value (Dilution Number 10) was found to be 1.10; the “Ratio of the control reporter (RES)” value under setting [2] amounted to 1.13.

In the case of `CC1(C)S[C@@H]2[C@H](NC(=O)[C@H](N)c3ccccc3)C(=O)N2[C@H]1C(=O)O` [Ampicillin], the “Ratio of the control reporter (RES)” value was determined as 1.16 (Dilution Number 9), 1.02 (Dilution Number 10) and 1.06 under setting [2].

Regarding `CN[C@H](CC(C)C)C(=O)N[C@H]1C(=O)N[C@@H](CC(N)=O)C(=O)N[C@H]2C(=O)N[C@H]3C(=O)N[C@H](C(=O)N[C@H](C(=O)O)c4cc(O)cc(O)c4-c4cc3ccc4O)[C@H](O)c3ccc(c(Cl)c3)Oc3cc2cc(c3O[C@@H]2O[C@H](CO)[C@@H](O)[C@H](O)[C@H]2O[C@H]2C[C@](C)(N)[C@H](O)[C@H](C)O2)Oc2ccc(cc2Cl)[C@H]1O` [Vancomycin], the “Ratio of the control reporter (RES)” value was found to be 1.03 (Dilution Number 7); 1.04 (Dilution Number 8); 1.07 (Dilution Number 9); 1.11 (Dilution Number 10); 1.12 under setting [2].

Take Polymyxin: the “Ratio of the control reporter (RES)” value is 1.19 under setting [1]; 1.22 (Dilution Number 2); 1.21 (Dilution Number 3); 1.23 (Dilution Number 4); 1.44 (Dilution Number 5); 1.24 (Dilution Number 6). Further, the “Ratio of the control reporter (RES)” value reads like this: (Dilution Number 7) 1.20; (Dilution Number 8) 1.15; (Dilution Number 9) 1.16; (Dilution Number 10) 1.16; under setting [2], 1.17.
